One block for each molecule: values may come before it. Activity calls are given as the source filed them. For most assays here, no stated cut-off is given here; in the data, actives have a measured IC50 and inactives only a lower limit.
How the values were obtained:
Coagulation factor XII = biological target: T1, Coagulation factor XII (Homo sapiens, UniProt P00748); assay: Factor XIIa Dose Response Confirmation from Single Well HTS. [Related pubchem assays (depositor defined):AID701]; format: functional
T1 sequence (P00748 whole entry): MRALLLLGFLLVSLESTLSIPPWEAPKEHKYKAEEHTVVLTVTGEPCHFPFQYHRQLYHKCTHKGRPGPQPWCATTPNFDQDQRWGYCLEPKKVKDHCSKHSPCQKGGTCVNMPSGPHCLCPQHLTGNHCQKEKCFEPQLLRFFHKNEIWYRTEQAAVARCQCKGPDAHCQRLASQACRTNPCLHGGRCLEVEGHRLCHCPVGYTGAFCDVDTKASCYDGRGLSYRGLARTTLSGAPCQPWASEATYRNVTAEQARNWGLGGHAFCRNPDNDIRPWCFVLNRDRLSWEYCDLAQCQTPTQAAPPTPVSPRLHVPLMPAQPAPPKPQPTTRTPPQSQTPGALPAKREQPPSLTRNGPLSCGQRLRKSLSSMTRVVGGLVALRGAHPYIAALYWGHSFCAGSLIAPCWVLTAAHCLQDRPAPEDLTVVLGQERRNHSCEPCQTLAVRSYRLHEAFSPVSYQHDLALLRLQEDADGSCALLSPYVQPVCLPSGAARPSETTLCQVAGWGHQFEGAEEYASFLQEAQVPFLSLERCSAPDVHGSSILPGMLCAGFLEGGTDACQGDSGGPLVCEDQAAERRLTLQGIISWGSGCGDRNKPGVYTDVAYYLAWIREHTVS

[1] = biological target: T2, Tyrosine-protein phosphatase non-receptor type 7 (Homo sapiens, UniProt P35236); assay: redox-dependent HePTP inhibition, mechanism study, biochemical, fluorescence (AID 2068); format: functional
T2 sequence (P35236 whole entry): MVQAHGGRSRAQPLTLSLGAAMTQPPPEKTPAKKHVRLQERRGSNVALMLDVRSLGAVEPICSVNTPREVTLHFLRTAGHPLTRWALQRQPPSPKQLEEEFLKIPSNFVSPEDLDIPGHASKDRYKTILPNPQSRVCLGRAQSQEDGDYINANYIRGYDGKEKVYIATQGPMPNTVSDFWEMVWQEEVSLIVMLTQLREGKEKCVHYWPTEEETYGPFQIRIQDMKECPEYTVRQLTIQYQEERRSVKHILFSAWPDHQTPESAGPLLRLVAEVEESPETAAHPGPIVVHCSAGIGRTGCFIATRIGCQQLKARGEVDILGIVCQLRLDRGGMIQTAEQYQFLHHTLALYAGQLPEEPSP

[2] = biological target: Glyceraldehyde-3-phosphate dehydrogenase (Homo sapiens, UniProt P04406)
[3] = biological target: Alkaline phosphatase, placental type (Homo sapiens, UniProt P05187); assay: PLAP enzyme inhibitors, confirmation, biochemical, luminescence (AID 1512); format: functional
[4] = biological target: T3, Alkaline phosphatase, tissue-nonspecific isozyme (Homo sapiens, UniProt P05186); assay: human TNAP enzyme inhibitors, SAR follow-up, biochemical, luminescent, dose response (AID 1056)
T3 sequence (P05186 whole entry): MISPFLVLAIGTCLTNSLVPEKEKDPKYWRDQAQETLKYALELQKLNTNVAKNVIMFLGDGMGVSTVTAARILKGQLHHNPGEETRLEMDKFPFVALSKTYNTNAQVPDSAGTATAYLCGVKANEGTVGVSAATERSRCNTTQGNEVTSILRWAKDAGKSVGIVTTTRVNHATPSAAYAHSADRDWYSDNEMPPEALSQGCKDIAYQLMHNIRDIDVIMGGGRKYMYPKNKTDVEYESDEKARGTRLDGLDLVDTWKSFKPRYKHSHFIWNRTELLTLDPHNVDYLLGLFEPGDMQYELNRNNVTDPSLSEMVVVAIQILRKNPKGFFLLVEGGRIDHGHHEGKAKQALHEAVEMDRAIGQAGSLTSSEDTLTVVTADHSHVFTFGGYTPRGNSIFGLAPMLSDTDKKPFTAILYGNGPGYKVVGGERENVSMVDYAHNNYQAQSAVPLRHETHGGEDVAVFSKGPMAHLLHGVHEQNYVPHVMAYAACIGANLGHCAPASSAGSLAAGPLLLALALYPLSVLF

[5] = biological target: T4, Microphthalmia-associated transcription factor (Homo sapiens, UniProt O75030); assay: MITF Measured in Cell-Based System Using Plate Reader - 2084-01_Inhibitor_DoseNoFile_CherryPick_Activity_Set2. [Related pubchem assays (depositor defined):AID488944]; format: functional
T4 sequence (O75030 whole entry): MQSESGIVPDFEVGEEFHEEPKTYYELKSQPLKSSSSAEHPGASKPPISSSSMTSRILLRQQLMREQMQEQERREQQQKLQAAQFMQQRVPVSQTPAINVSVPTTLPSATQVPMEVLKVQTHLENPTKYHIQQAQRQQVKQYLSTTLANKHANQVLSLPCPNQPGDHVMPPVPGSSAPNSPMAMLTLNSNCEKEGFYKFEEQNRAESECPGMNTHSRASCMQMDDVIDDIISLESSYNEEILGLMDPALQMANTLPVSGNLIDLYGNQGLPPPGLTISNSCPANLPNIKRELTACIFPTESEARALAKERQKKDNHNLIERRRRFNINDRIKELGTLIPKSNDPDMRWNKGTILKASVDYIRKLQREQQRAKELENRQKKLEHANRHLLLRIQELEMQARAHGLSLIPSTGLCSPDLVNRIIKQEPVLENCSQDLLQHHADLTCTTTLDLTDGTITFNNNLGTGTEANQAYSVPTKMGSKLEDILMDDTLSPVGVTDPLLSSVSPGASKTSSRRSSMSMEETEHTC

[6] = biological target: T4, Microphthalmia-associated transcription factor; assay: TRPM1 promoter luciferase signal decrease, dose response, MITF inhibitor project, cell-based, SK-MEL-5, cherry-picked, set 4 (AID 493102); format: functional
[7] = biological target: T4, Microphthalmia-associated transcription factor; assay: TRPM1 promoter luciferase signal decrease, dose response, MITF inhibitor project, cell-based, SK-MEL-5, cherry-picked, set 3 (AID 493073); format: functional

Chain of Glyceraldehyde-3-phosphate dehydrogenase (P04406 whole entry): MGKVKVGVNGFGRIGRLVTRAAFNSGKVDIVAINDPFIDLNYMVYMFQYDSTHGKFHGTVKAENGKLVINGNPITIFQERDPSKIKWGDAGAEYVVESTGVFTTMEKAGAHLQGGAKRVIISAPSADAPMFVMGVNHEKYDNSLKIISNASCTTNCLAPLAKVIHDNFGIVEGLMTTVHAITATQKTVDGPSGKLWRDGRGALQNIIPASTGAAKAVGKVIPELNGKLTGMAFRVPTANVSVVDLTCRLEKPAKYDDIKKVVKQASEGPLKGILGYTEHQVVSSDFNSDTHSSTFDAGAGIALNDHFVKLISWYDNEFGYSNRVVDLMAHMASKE
Chain of Alkaline phosphatase, placental type (P05187 whole entry): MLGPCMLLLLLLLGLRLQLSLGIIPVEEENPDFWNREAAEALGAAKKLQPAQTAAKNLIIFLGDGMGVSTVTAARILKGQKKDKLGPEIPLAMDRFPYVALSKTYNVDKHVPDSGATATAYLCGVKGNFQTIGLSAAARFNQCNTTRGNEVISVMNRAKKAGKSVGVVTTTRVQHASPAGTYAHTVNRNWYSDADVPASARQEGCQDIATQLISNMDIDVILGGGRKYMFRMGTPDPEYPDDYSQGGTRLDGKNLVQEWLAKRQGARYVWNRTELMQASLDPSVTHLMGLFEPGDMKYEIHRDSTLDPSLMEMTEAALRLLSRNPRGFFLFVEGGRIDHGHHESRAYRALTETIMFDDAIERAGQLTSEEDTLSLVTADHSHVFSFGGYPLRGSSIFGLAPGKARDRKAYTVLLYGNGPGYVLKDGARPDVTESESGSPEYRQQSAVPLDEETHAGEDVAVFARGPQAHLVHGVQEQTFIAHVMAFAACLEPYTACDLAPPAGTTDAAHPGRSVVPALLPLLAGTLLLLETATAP

IC50 (Coagulation factor XII): > 50 µM (inactive)
Structure (SMILES): O=C(C1CCC1)N(CCc1ccccc1)Cc1nc(O)c2ccccc2n1

IC50 [1]: 0.84 µM (active)
Structure (SMILES): CC1CCN(C(=O)Nc2ccc3nc(-c4ccco4)c(-c4ccco4)nc3c2)CC1

IC50 [2]: > 100 µM (not active) | IC50 [3]: > 100 µM (inactive) | IC50 [4]: > 100 µM (inactive)
Structure (SMILES): CC(C)Cc1nc(N)nn1-c1ccccc1

AC50 [5]: > 350 µM (inactive) | AC50 [6]: > 350 µM (inactive) | AC50 [7]: > 350 µM (inactive)
Structure (SMILES): CN(C)Cc1c(O)ccc2c1O/C(=C\C=C\c1ccccc1)C2=O
